pIC50: −log10 of the molar value. Values after ≈ are worked out from the molar mass of the structure shown.
How the values were obtained:
[1] = Kinetic solubility of compound; type: physicochemical; conditions: read-out: Kinetic_solubility
[2] = Selectivity ratio of IC50 for human gamma secretase PS2 (1 to 467 residues) expressed in baculovirus infected sf9 cells co-expressing aph-1a to IC50 for gamma secretase PS1 (1 to 448 residues) expressed in baculovirus infected sf9 cells co-expressing aph-1a
Cytochrome P450 3A4 [3] = target: T1, Cytochrome P450 3A4 (Homo sapiens, UniProt P08684); assay: Inhibition of CYP3A4 in human liver microsomes after 30 secs by LC/MS/MS analysis; type: ADME
T1 sequence (P08684 whole entry): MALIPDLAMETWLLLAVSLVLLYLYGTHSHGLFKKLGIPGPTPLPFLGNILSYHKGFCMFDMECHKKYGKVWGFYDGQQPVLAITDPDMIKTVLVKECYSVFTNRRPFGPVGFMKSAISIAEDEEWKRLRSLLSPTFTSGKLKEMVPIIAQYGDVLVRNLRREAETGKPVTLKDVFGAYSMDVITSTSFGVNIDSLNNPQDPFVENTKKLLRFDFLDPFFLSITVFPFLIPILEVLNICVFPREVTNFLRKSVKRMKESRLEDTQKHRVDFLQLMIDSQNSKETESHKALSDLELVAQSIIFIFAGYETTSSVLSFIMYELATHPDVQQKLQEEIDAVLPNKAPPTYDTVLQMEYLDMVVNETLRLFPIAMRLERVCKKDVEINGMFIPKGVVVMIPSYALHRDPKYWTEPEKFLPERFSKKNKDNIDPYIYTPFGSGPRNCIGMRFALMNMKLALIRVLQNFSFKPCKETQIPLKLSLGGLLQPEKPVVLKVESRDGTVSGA

[4] = Ratio of drug level in brain to plasma in mouse at 6 hrs; type: ADME, organism-based; conditions: brain and plasma, read-out: BPR
Cytochrome P450 2C9 = Cytochrome P450 2C9 (Homo sapiens, UniProt P11712); assay: Inhibition of CYP2C9 in human liver microsomes after 30 secs by LC/MS/MS analysis; type: ADME
Cytochrome P450 2C9, sequence (P11712 whole entry): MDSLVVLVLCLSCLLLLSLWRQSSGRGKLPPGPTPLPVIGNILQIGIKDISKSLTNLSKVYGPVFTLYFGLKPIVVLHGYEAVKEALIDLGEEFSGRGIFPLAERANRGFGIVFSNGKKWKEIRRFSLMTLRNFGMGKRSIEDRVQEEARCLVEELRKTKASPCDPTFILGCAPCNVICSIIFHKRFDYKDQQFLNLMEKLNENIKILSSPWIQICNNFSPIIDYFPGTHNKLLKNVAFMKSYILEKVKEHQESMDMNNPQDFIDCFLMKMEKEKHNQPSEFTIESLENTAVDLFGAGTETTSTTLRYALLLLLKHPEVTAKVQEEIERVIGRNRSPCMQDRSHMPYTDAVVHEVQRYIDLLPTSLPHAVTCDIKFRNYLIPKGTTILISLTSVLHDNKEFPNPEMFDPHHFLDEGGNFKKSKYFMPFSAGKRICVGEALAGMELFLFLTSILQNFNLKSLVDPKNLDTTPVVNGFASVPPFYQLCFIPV

[5] = AUC (0 to 6 hrs) in mouse at 10 mg/kg, po by LC/MS/MS analysis; type: ADME, organism-based; set-up: time < 6 hr, dose 10 mg/kg, route oral; conditions: in vivo
[6] = Clearance in monkey hepatocytes assessed per million cells by HPLC/atmospheric pressure chemical ionization/MS analysis; type: ADME, cell-based, Macaca mulatta, Hepatocyte; conditions: rhesus monkey, read-out: CLH
Cytochrome P450 2D6 = Cytochrome P450 2D6 (Homo sapiens, UniProt P10635); assay: Inhibition of CYP2D6 in human liver microsomes after 30 secs by LC/MS/MS analysis; type: ADME
Cytochrome P450 2D6, sequence (P10635 whole entry): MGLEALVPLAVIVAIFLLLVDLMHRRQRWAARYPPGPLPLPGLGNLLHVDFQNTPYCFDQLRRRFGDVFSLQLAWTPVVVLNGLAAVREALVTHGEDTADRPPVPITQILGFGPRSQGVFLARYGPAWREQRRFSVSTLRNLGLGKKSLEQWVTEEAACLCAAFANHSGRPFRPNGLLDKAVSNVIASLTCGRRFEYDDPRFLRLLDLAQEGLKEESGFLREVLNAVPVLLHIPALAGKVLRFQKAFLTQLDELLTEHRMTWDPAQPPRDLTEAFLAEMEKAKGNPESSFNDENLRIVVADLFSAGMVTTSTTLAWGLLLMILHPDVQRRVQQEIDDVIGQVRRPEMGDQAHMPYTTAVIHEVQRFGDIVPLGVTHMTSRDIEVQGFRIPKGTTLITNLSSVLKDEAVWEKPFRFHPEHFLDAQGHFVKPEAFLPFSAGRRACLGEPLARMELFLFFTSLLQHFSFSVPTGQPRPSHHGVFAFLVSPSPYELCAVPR

[7] = Clearance in rat hepatocytes assessed per million cells by HPLC/atmospheric pressure chemical ionization/MS analysis; type: ADME, cell-based, Hepatocyte; conditions: read-out: CLH
[8] = Inhibition of gamma-secretase in HEK293 cell membranes expressing human APP Swedish/London double mutant assessed as reduction in amyloid beta 40 formation after 1 hr by electrochemiluminescence based immunoassay
Cytochrome P450 3A4 [9] = target: T1, Cytochrome P450 3A4; assay: Inhibition of CYP3A4 in human liver microsomes preincubated for 30 mins after 30 secs by LC/MS/MS analysis; type: ADME
[10] = Clearance in human hepatocytes assessed per million cells by HPLC/atmospheric pressure chemical ionization/MS analysis; type: ADME, cell-based, Hepatocyte; conditions: read-out: CLH
[11] = Clearance in dog hepatocytes assessed per million cells by HPLC/atmospheric pressure chemical ionization/MS analysis; type: ADME, cell-based, Canis lupus familiaris, Hepatocyte; conditions: read-out: CLH
Mus musculus [12] = assay: Antialzheimer activity in B6C3F1 mouse assessed as amyloid beta 40 level in cortex at 10 mg/kg, po administered as single dose after 3 hrs relative to control; type: functional
Mus musculus [13] = assay: Antialzheimer activity in B6C3F1 mouse assessed as amyloid beta 40 level in plasma at 10 mg/kg, po administered as single dose after 3 hrs relative to control; type: functional

Compound: Cl.O=S(=O)(CC[C@@H]1OCC[C@@]2(S(=O)(=O)c3ccc(Cl)cc3)c3c(F)ccc(F)c3OC[C@@H]12)C[C@H]1CCCN1
- solubility kinetic [1]: ≥ 200 µM

Compound: CNCCS(=O)(=O)CC[C@@H]1OCC[C@@]2(S(=O)(=O)c3ccc(Cl)cc3)c3c(F)ccc(F)c3OC[C@@H]12
- Ratio IC50 [2]: 25

Compound: CCNCCS(=O)(=O)CC[C@@H]1OCC[C@@]2(S(=O)(=O)c3ccc(Cl)cc3)c3c(F)ccc(F)c3OC[C@@H]12 [listing 1 of 2 here]
- pIC50 (Cytochrome P450 3A4 [3]): < 4.70
- Kp at 6 h [4]: 0.4
- pIC50 (Cytochrome P450 2C9): < 4.70
- AUC(0-t) at 6 h [5]: 1.35 µM·h
- hepatocyte CLint [6]: 44.6 µL/min/1e6 cells
- pIC50 (Cytochrome P450 2D6): < 4.70
- hepatocyte CLint [7]: 29.1 µL/min/1e6 cells
- pIC50 [8]: 9.05
- pIC50 (Cytochrome P450 3A4 [9]): 5.85
- hepatocyte CLint [10]: 15.1 µL/min/1e6 cells
- hepatocyte CLint [11]: 10.8 µL/min/1e6 cells

Compound: O=S(=O)(CC[C@@H]1OCC[C@@]2(S(=O)(=O)c3ccc(Cl)cc3)c3c(F)ccc(F)c3OC[C@@H]12)C[C@@H]1CCCN1
- Ratio IC50 [2]: 14

Compound: NCCS(=O)(=O)CC[C@@H]1OCC[C@@]2(S(=O)(=O)c3ccc(Cl)cc3)c3c(F)ccc(F)c3OC[C@@H]12
- Ratio IC50 [2]: 35

Compound: Cl.O=S(=O)(CC[C@@H]1OCC[C@@]2(S(=O)(=O)c3ccc(Cl)cc3)c3c(F)ccc(F)c3OC[C@@H]12)C1CNC1
- solubility kinetic [1]: > 200 µM

Compound: O=S(=O)(CC[C@@H]1OCC[C@@]2(S(=O)(=O)c3ccc(Cl)cc3)c3c(F)ccc(F)c3OC[C@@H]12)[C@@H]1CCNC1
- pIC50 (Cytochrome P450 3A4 [3]): 5.21
- Kp at 6 h [4]: 2
- pIC50 (Cytochrome P450 2C9): < 4.70
- Activity (Mus musculus [12]): -73%
- Activity (Mus musculus [13]): -90%
- AUC(0-t) at 6 h [5]: 1.17 µM·h
- hepatocyte CLint [6]: 38.8 µL/min/1e6 cells
- pIC50 (Cytochrome P450 2D6): < 4.70
- hepatocyte CLint [7]: 13.9 µL/min/1e6 cells
- pIC50 [8]: 8.29
- pIC50 (Cytochrome P450 3A4 [9]): 5.43
- hepatocyte CLint [10]: 14.5 µL/min/1e6 cells
- hepatocyte CLint [11]: 17.9 µL/min/1e6 cells

Compound: Cl.O=S(=O)(CC[C@@H]1OCC[C@@]2(S(=O)(=O)c3ccc(Cl)cc3)c3c(F)ccc(F)c3OC[C@@H]12)C[C@@H]1CCCN1
- solubility kinetic [1]: ≥ 200 µM

Compound: O=S(=O)(CC[C@@H]1OCC[C@@]2(S(=O)(=O)c3ccc(Cl)cc3)c3c(F)ccc(F)c3OC[C@@H]12)CCN1CCNCC1
- pIC50 (Cytochrome P450 3A4 [3]): < 4.70
- pIC50 (Cytochrome P450 2C9): < 4.70
- solubility kinetic [1]: 200 µM (≈ 121 µg/mL)
- Activity (Mus musculus [13]): -95%
- AUC ([5]; 6 h, BLD = below limit of detection): Bld
- hepatocyte CLint [6]: 12.7 µL/min/1e6 cells
- pIC50 (Cytochrome P450 2D6): < 4.70
- hepatocyte CLint [7]: 6.1 µL/min/1e6 cells
- pIC50 [8]: 9.10
- Ratio IC50 [2]: 10
- pIC50 (Cytochrome P450 3A4 [9]): < 4.70
- hepatocyte CLint [10]: 5.3 µL/min/1e6 cells
- hepatocyte CLint [11]: 7.7 µL/min/1e6 cells

Compound: O=S(=O)(CC[C@@H]1OCC[C@@]2(S(=O)(=O)c3ccc(Cl)cc3)c3c(F)ccc(F)c3OC[C@@H]12)C[C@H]1CCCN1
- pIC50 (Cytochrome P450 3A4 [3]): < 4.70
- Kp at 6 h [4]: 0.4
- pIC50 (Cytochrome P450 2C9): < 4.70
- Activity (Mus musculus [12]): -42%
- Activity (Mus musculus [13]): -71%
- AUC(0-t) at 6 h [5]: 2.52 µM·h
- hepatocyte CLint [6]: 28 µL/min/1e6 cells
- pIC50 (Cytochrome P450 2D6): < 4.70
- hepatocyte CLint [7]: 12.8 µL/min/1e6 cells
- pIC50 [8]: 9.00
- pIC50 (Cytochrome P450 3A4 [9]): 6.00
- hepatocyte CLint [11]: 13.6 µL/min/1e6 cells

Compound: O=S(=O)(CC[C@@H]1OCC[C@@]2(S(=O)(=O)c3ccc(Cl)cc3)c3c(F)ccc(F)c3OC[C@@H]12)CCN1CC[C@@H](O)C1
- pIC50 [8]: 9.22
- Ratio IC50 [2]: 12

Compound: O=S(=O)(CC[C@@H]1OCC[C@@]2(S(=O)(=O)c3ccc(Cl)cc3)c3c(F)ccc(F)c3OC[C@@H]12)CCN1CC[C@H](O)C1
- pIC50 [8]: 9.10
- Ratio IC50 [2]: 12

Compound: O=S(=O)(CC[C@@H]1OCC[C@@]2(S(=O)(=O)c3ccc(Cl)cc3)c3c(F)ccc(F)c3OC[C@@H]12)CCN1CCCCC1
- pIC50 [8]: 8.89
- Ratio IC50 [2]: 9

Compound: Cl.O=S(=O)(CC[C@@H]1OCC[C@@]2(S(=O)(=O)c3ccc(Cl)cc3)c3c(F)ccc(F)c3OC[C@@H]12)[C@H]1CCNC1
- solubility kinetic [1]: ≥ 200 µM

Compound: Cl.O=S(=O)(CC[C@@H]1OCC[C@@]2(S(=O)(=O)c3ccc(Cl)cc3)c3c(F)ccc(F)c3OC[C@@H]12)[C@@H]1CCNC1
- solubility kinetic [1]: ≥ 200 µM

Compound: O=S(=O)(CC[C@@H]1OCC[C@@]2(S(=O)(=O)c3ccc(Cl)cc3)c3c(F)ccc(F)c3OC[C@@H]12)[C@H]1CCNC1
- pIC50 (Cytochrome P450 3A4 [3]): 5.70
- Kp at 6 h [4]: 0.3
- pIC50 (Cytochrome P450 2C9): < 4.70
- Activity (Mus musculus [12]): -56%
- Activity (Mus musculus [13]): -82%
- AUC(0-t) at 6 h [5]: 1.02 µM·h
- hepatocyte CLint [6]: 60.5 µL/min/1e6 cells
- pIC50 (Cytochrome P450 2D6): < 4.70
- hepatocyte CLint [7]: 18.9 µL/min/1e6 cells
- pIC50 [8]: 8.85
- pIC50 (Cytochrome P450 3A4 [9]): 6.00
- hepatocyte CLint [10]: 34.2 µL/min/1e6 cells
- hepatocyte CLint [11]: 21.1 µL/min/1e6 cells

Compound: O=S(=O)(CC[C@@H]1OCC[C@@]2(S(=O)(=O)c3ccc(Cl)cc3)c3c(F)ccc(F)c3OC[C@@H]12)C1CNC1
- Activity (Mus musculus [13]): -15%
- pIC50 [8]: 8.89

Compound: CCNCCS(=O)(=O)CC[C@@H]1OCC[C@@]2(S(=O)(=O)c3ccc(Cl)cc3)c3c(F)ccc(F)c3OC[C@@H]12 [listing 2 of 2 here]
- Ratio IC50 [2]: 18

Reference: ChEMBL document CHEMBL3867482, “Design and synthesis of water soluble β-aminosulfone analogues of SCH 900229 as γ-secretase inhibitors” (Bioorg Med Chem Lett, 2016)
